Laboratory results taken from ChEMBL document CHEMBL2413072, “Synthesis and in vitro anticancer studies of novel C-2 arylidene congeners of lantadenes” (2013).

Legend:
Type in all cases: functional
HCT-116 = test: Growth inhibition of human HCT116 cells by sulforhodamine B assay
NCI-H522 = test: Growth inhibition of human NCI-H522 cells by sulforhodamine B assay
NCI-H460 = test: Growth inhibition of human NCI-H460 cells by sulforhodamine B assay
NCI-H226 [1] = test: Growth inhibition of human NCI-H226 cells by sulforhodamine B assay
HOP-62 = test: Growth inhibition of human HOP62 cells by sulforhodamine B assay
A549 = test: Growth inhibition of human A549/ATCC cells by sulforhodamine B assay
SNB-19 = test: Growth inhibition of human SNB19 cells assessed as cell growth at 10^-8 M by sulforhodamine B assay; details: read-out: Activity
SF-539 = test: Growth inhibition of human SF539 cells assessed as cell growth at 10^-8 M by sulforhodamine B assay; details: read-out: Activity
NCI-H322M = test: Growth inhibition of human NCI-H322M cells assessed as cell growth at 10^-8 M by sulforhodamine B assay; details: read-out: Activity
RXF 393 [2] = test: Growth inhibition of human RXF393 cells by sulforhodamine B assay
CAKI-1 = test: Growth inhibition of human CAKI-1 cells by sulforhodamine B assay
A498 [3] = test: Growth inhibition of human A498 cells by sulforhodamine B assay
UACC-62 [4] = test: Growth inhibition of human UACC62 cells by sulforhodamine B assay
SF-295 = test: Growth inhibition of human SF295 cells by sulforhodamine B assay
MDA-MB-231 = test: Growth inhibition of human MDA-MB-231 cells assessed as cell growth at 10^-4 M by sulforhodamine B assay; details: read-out: Activity
UO-31 = test: Growth inhibition of human UO31 cells assessed as cell growth at 10^-4 M by sulforhodamine B assay; details: read-out: Activity
OVCAR-4 = test: Growth inhibition of human OVCAR4 cells assessed as cell growth at 10^-4 M by sulforhodamine B assay; details: read-out: Activity
IGROV-1 = test: Growth inhibition of human IGROV1 cells assessed as cell growth at 10^-4 M by sulforhodamine B assay; details: read-out: Activity
UACC-62 [5] = test: Growth inhibition of human UACC62 cells assessed as cell growth at 10^-4 M by sulforhodamine B assay; details: read-out: Activity
UACC-257 [6] = test: Growth inhibition of human UACC257 cells assessed as cell growth at 10^-4 M by sulforhodamine B assay; details: read-out: Activity
SK-MEL-5 = test: Growth inhibition of human SK-MEL-5 cells assessed as cell growth at 10^-4 M by sulforhodamine B assay; details: read-out: Activity
SK-MEL-28 [7] = test: Growth inhibition of human SK-MEL-28 cells assessed as cell growth at 10^-4 M by sulforhodamine B assay; details: read-out: Activity
Malme-3M [8] = test: Growth inhibition of human MALME-3M cells assessed as cell growth at 10^-4 M by sulforhodamine B assay; details: read-out: Activity
NCI-H226 [9] = test: Growth inhibition of human NCI-H226 cells assessed as cell growth at 10^-4 M by sulforhodamine B assay; details: read-out: Activity
SR = test: Growth inhibition of human SR cells assessed as cell growth at 10^-4 M by sulforhodamine B assay; details: read-out: Activity
A498 [10] = test: Growth inhibition of human A498 cells assessed as cell growth at 10^-6 M by sulforhodamine B assay; details: read-out: Activity
OVCAR-8 = test: Growth inhibition of human OVCAR8 cells assessed as cell growth at 10^-6 M by sulforhodamine B assay; details: read-out: Activity
UACC-257 [11] = test: Growth inhibition of human UACC257 cells assessed as cell growth at 10^-6 M by sulforhodamine B assay; details: read-out: Activity
MDA-MB-435 = test: Growth inhibition of human MDA-MB-435 cells assessed as cell growth at 10^-6 M by sulforhodamine B assay; details: read-out: Activity
Malme-3M [12] = test: Growth inhibition of human MALME-3M cells assessed as cell growth at 10^-6 M by sulforhodamine B assay; details: read-out: Activity
HT-29 = test: Growth inhibition of human HT-29 cells assessed as cell growth at 10^-6 M by sulforhodamine B assay; details: read-out: Activity
OVCAR-5 = test: Growth inhibition of human OVCAR5 cells assessed as cell growth at 10^-7 M by sulforhodamine B assay; details: read-out: Activity
OVCAR-3 = test: Growth inhibition of human OVCAR3 cells assessed as cell growth at 10^-7 M by sulforhodamine B assay; details: read-out: Activity
SK-MEL-28 [13] = test: Growth inhibition of human SK-MEL-28 cells assessed as cell growth at 10^-7 M by sulforhodamine B assay; details: read-out: Activity
U-251 = test: Growth inhibition of human U251 cells assessed as cell growth at 10^-7 M by sulforhodamine B assay; details: read-out: Activity
TK-10 = test: Growth inhibition of human TK10 cells assessed as cell growth at 10^-8 M by sulforhodamine B assay; details: read-out: Activity
RXF 393 [14] = test: Growth inhibition of human RXF393 cells assessed as cell growth at 10^-8 M by sulforhodamine B assay; details: read-out: Activity
[15] = read-out: LC50 (the source's name)
[16] = read-out: pLC50 (the source's name) (converted)

CC1(C)C[C@@H](O)[C@]2(C(=O)O)CC[C@]3(C)C(=CC[C@@H]4[C@@]5(C)C/C(=C\C=C\c6ccccc6)C(=O)C(C)(C)[C@@H]5CC[C@]43C)[C@@H]2C1
GI50 (HCT-116; read-out: GI50): 2.89 µM
LC50 (HCT-116; read-out: LC50): 82.7 µM
TGI (HCT-116; read-out: TGI): 11.2 µM
GI50 (HCT-116; read-out: pGI50 (converted)): 2.88 µM
LC50 (HCT-116; read-out: pLC50 (converted)): 83.2 µM
TGI (HCT-116; read-out: pTGI (converted)): 11.2 µM
GI50 (NCI-H522; read-out: GI50): 2.46 µM
CC50 (NCI-H522; [15]): 29.4 µM
TGI (NCI-H522; read-out: TGI): 6.9 µM
GI50 (NCI-H522; read-out: pGI50 (converted)): 2.45 µM
CC50 (NCI-H522; [16]): 29.5 µM
TGI (NCI-H522; read-out: pTGI (converted)): 6.92 µM
GI50 (NCI-H460; read-out: GI50): 2.67 µM
LC50 (NCI-H460; read-out: LC50): 44.1 µM
TGI (NCI-H460; read-out: TGI): 7.6 µM
GI50 (NCI-H460; read-out: pGI50 (converted)): 2.69 µM
LC50 (NCI-H460; read-out: pLC50 (converted)): 43.7 µM
TGI (NCI-H460; read-out: pTGI (converted)): 7.59 µM
GI50 (NCI-H226 [1]; read-out: GI50): 2.78 µM
LC50 (NCI-H226 [1]; read-out: LC50): 56.2 µM
TGI (NCI-H226 [1]; read-out: TGI): 12.8 µM
GI50 (NCI-H226 [1]; read-out: pGI50 (converted)): 2.75 µM
LC50 (NCI-H226 [1]; read-out: pLC50 (converted)): 56.2 µM
TGI (NCI-H226 [1]; read-out: pTGI (converted)): 12.9 µM
GI50 (HOP-62; read-out: GI50): 4.72 µM
LC50 (concentration killing 50% of cells) (HOP-62; read-out: LC50): 83.5 µM
TGI (HOP-62; read-out: TGI): 21.2 µM
GI50 (HOP-62; read-out: pGI50 (converted)): 4.68 µM
LC50 (concentration killing 50% of cells) (HOP-62; read-out: pLC50 (converted)): 83.2 µM
TGI (HOP-62; read-out: pTGI (converted)): 21.4 µM
GI50 (A549; read-out: GI50): 2.8 µM
CC50 (A549; [15]): 63.4 µM
TGI (A549; read-out: TGI): 11.2 µM
GI50 (A549; read-out: pGI50 (converted)): 2.82 µM
CC50 (A549; [16]): 63.1 µM
TGI (A549; read-out: pTGI (converted)): 11.2 µM
growth at 0.01 µM (SNB-19): 94%
growth at 0.01 µM (SF-539): 93%
growth at 0.01 µM (NCI-H322M): 98%
GI50 (RXF 393 [2]; read-out: GI50): 2.65 µM
CC50 (RXF 393 [2]; [15]): 29.7 µM
TGI (RXF 393 [2]; read-out: TGI): 7.65 µM
GI50 (RXF 393 [2]; read-out: pGI50 (converted)): 2.63 µM
CC50 (RXF 393 [2]; [16]): 29.5 µM
TGI (RXF 393 [2]; read-out: pTGI (converted)): 7.59 µM
GI50 (CAKI-1; read-out: GI50): 3.57 µM
CC50 (CAKI-1; [15]): > 100 µM
TGI (CAKI-1; read-out: TGI): 17.7 µM
GI50 (CAKI-1; read-out: pGI50 (converted)): 3.55 µM
CC50 (CAKI-1; [16]): > 100 µM
TGI (CAKI-1; read-out: pTGI (converted)): 17.8 µM
GI50 (A498 [3]; read-out: GI50): 2.55 µM
CC50 (A498 [3]; [15]): 35.2 µM
TGI (A498 [3]; read-out: TGI): 11.6 µM
GI50 (A498 [3]; read-out: pGI50 (converted)): 2.57 µM
CC50 (A498 [3]; [16]): 35.5 µM
TGI (A498 [3]; read-out: pTGI (converted)): 11.5 µM
GI50 (UACC-62 [4]; read-out: GI50): 1.76 µM
CC50 (UACC-62 [4]; [15]): 7.84 µM
TGI (UACC-62 [4]; read-out: TGI): 3.71 µM
GI50 (UACC-62 [4]; read-out: pGI50 (converted)): 1.78 µM
CC50 (UACC-62 [4]; [16]): 7.76 µM
TGI (UACC-62 [4]; read-out: pTGI (converted)): 3.72 µM
GI50 (SF-295; read-out: GI50): 2.4 µM
CC50 (SF-295; [15]): 49.8 µM
TGI (SF-295; read-out: TGI): 7.56 µM
GI50 (SF-295; read-out: pGI50 (converted)): 2.4 µM
CC50 (SF-295; [16]): 50.1 µM
TGI (SF-295; read-out: pTGI (converted)): 7.59 µM
growth at 100 µM (MDA-MB-231): -93%
growth at 100 µM (UO-31): -82%
growth at 100 µM (OVCAR-4): -97%
growth at 100 µM (IGROV-1): -59%
growth at 100 µM (UACC-62 [5]): -96%
growth at 100 µM (UACC-257 [6]): -88%
growth at 100 µM (SK-MEL-5): -99%
growth at 100 µM (SK-MEL-28 [7]): -80%
growth at 100 µM (Malme-3M [8]): -60%
growth at 100 µM (NCI-H226 [9]): -70%
growth at 100 µM (SR): -24%
growth at 1 µM (A498 [10]): 80%
growth at 1 µM (OVCAR-8): 93%
growth at 1 µM (UACC-257 [11]): 89%
growth at 1 µM (MDA-MB-435): 95%
growth at 1 µM (Malme-3M [12]): 96%
growth at 1 µM (HT-29): 99%
growth at 0.1 µM (OVCAR-5): 92%
growth at 0.1 µM (OVCAR-3): 104%
growth at 0.1 µM (SK-MEL-28 [13]): 102%
growth at 0.1 µM (U-251): 95%
growth at 0.01 µM (TK-10): 98%
growth at 0.01 µM (RXF 393 [14]): 94%
